Format in all cases: ADME, organism-based
A short description of data set [1]: (§1) Pharmacokinetic parameters for Estradiol on day 14, following multiple daily topical administration of Divigel 0.1 %,at steady state. Also noted: dose 0.5 g, dose 1 g, dose 0.25 g, route topical. The following applies: human, in vivo, topical or ocular, dose 0.25 g, dosed compound id 17, dosed compound name ESTRADIOL, regimen Multiple daily dose, sampling time1 Day 14 days, study dosing duration 14 days, tissue Plasma.

Data set [2] deals with Homo sapiens. Described as §1. Also noted: dose 0.5 g, dose 1 g, dose 0.25 g, route topical. The following applies: in vivo, topical_or_ocular, dosed compound id 17, dosed compound name ESTRADIOL, regimen Multiple daily dose, sampling time1 Day 14 days, study dosing duration 14 days, tissue Plasma.
Data set [3] is described as follows: Apparent terminal half-life of Estradiol evaluated after topical administration of Divigel. The following applies: human, in vivo, topical or ocular, dosed compound id 17, dosed compound name ESTRADIOL, tissue Plasma, read-out: t1/2(app) (converted).

The record followed here is ChEMBL document CHEMBL3832084, “DailyMed|setid=22191eca-c98d-4a07-844e-11edb0f04b8d | DIVIGEL - estradiol gel|Physicians Total Care, Inc”.

One may read the Tmax as the time at which the peak concentration occurs. As for `C[C@]12CC[C@@H]3c4ccc(O)cc4CC[C@H]3[C@@H]1CC[C@@H]2O` [ESTRADIOL], the Tmax in data set [1] came out at 16 h; in data set [2] (dose 0.5 g) it was 10 h; in data set [2] (dose 1 g), 8 h. Besides, the Cavg is 0.0098 ng/mL in data set [2] (dose 0.25 g), 0.021 ng/mL in data set [2] (dose 0.5 g) and 0.0305 ng/mL in data set [2] (dose 1 g). For the same molecule, the half-life in data set [3] was 10 h.
